Source: paper PMC8398059, “Peptoids with Antibiofilm Activity against the Gram Negative Obligate Anaerobe, Fusobacterium nucleatum” (Molecules, 2021)
Non-standard residues stand in square brackets, D forms with d. Residues, ends and D or L forms follow the SMILES beside them. Gly(N-(CH2)6NH2) = NCCCCCCNCC(=O)O; Gly(N-2-aminoethyl) = NCCNCC(=O)O; Nspe = C[C@H](NCC(=O)O)c1ccccc1; Nphe = O=C(O)CNCc1ccccc1; Nlys = NCCCCNCC(=O)O

Assays:
Format in all cases: cell-based
human erythrocytes = assay: Haemolytic assay; conditions: peptoid 100 µM, 37 °C, 1 h, absorbance 450 nm; positive control 1% Triton x-100; n = 3 independent experiments, 3 replicates each
Protocol: The haemolytic assay was employed to determine the potential cytotoxicity of the peptoids against human red blood cells. Blood samples were collected with ethical approval and informed consent in vacutainer containers with dipotassium ethylene- diaminetetraacetic acid (K2-EDTA). Blood was then transferred to a 50 mL tube and centrifuged at 1200× g for 5 min at room temperature. The supernatant was removed and PBS was added to the original volume of sample obtained. This step was repeated a further 3 times. The red blood cells were then diluted to 8% of their original volume for use in the haemolytic assay. A 1% solution of Triton x-100 in PBS served as a positive control, and PBS was used as a negative control.
Peptoids 1, 2, 3, 4, 5, 6, 7, 8 and 9 were diluted in PBS to 200 µM. A total volume of 100 µL of each peptoid was placed in the wells of a v-bottomed 96-well microtitre plate. Red blood cells (100 µL), prepared as outlined above, were then added. The final peptoid concentration in each well was therefore 100 µM. The plate was sealed with an adhesive film to prevent evaporation and incubated at 37 °C for 1 h. Following this time, the plate was centrifuged at 4000 RPM for 5 min to pellet unlysed red blood cells. Following this step, 100 µL of supernatant was carefully removed from each well and added to a flat-bottomed 96-well microtitre plate. The absorbance was read at 450 nm using a Tecan Genios (Männedorf, Switzerland) plate reader, and the percentage of red blood cells lysed was calculated.

[1] = tested on: human primary gingival fibroblasts; assay: MTT cell viability assay; conditions: peptoid 1 µM, 24 h, 37 °C; n = 3 independent experiments, 6 replicates each
Protocol: Cultured primary gingival fibroblast cells were obtained with ethical approval and informed consent, and were grown as previously described. Cells were seeded in 96-well plates at a concentration of 1 × 10^5 cells/mL (100 µL per well). Plates were incubated at 37 °C for 48 h to allow cells to reach confluence. Peptoids 1, 3, 4, 5, 6, 7 and 9 were diluted to 200 µM, 20 µM and 2 µM. The culture medium was removed and replaced with 50 µL of Dulbecco’s Modified Eagle’s Medium (DMEM) and 50 µL of the relevant peptoid. The cells were incubated for 24 h at 37 °C. After this time, 10 µL of 3-(4, 5- dimethylthiazol-2-yl)-2,5-diphenyltetrazolium bromide (MTT) reagent (Sigma-Aldrich, Poole, UK) was added to each well and the plate was incubated for a further 3 h at 37 °C. The medium was removed by aspiration and the wells were allowed to dry for 20 min. Then, 200 µL of dimethyl sulfoxide (DMSO) (Sigma-Aldrich, Poole, UK) was added to all wells and the plate was placed in an incubator for 30 min. The absorbance of the wells was read in a Tecan Genios (Männedorf, Switzerland) plate reader at 510 nm after 60 s of orbital shaking.

[2] = tested on: Fusobacterium nucleatum biofilm; assay: Biofilm inhibition assay with PMA-qPCR; conditions: strain NCTC 10562, anaerobic, 96-well plate, 48 h with peptoid + 48 h maturation, n = 3 independent experiments
Protocol: The F. nucleatum type strain (NCTC 10562, originally isolated from human, inflamed gingival tissue) was obtained from the National Collection of Type Cultures. The optical density (OD) of an overnight culture was measured spectrophotometrically at 570 nm and diluted with fresh broth to an OD of 0.30–0.35. The culture was further diluted 1 in 50 with anaerobic broth, giving a final inoculum concentration of approximately 5 × 10^6 CFU/mL. A biofilm inhibition assay was undertaken in a 96-well plate format. Peptoids 4 and 9 were added along with the inoculum (90 µL of inoculum in broth and 10 µL of peptoid solution) to each well, to yield peptoid concentrations of 1 µM and 10 µM. A solution containing 10 µL of PBS and 90 µL of anaerobic broth acted as an untreated control. Biofilms were allowed to develop in the presence of peptoids 4 or 9 for 48 h. After 48 h biofilm development, planktonic cells were removed by gently washing three times with PBS and then replacing the broth with 100 µL of fresh anaerobic broth prior to a further 48 h incubation for biofilm maturation. After this time, the wells were gently washed three times with 100 µL of PBS to remove planktonic cells. Plates were then sealed with parafilm, and the biofilms were dislodged from the wells in an ultrasonic bath for 20 min. Plates were then returned to the anaerobic cabinet and the dislodged biofilm samples were collected in Eppendorf tubes.
Propidium monoazide (PMA)-qPCR was undertaken essentially as previously described. Briefly, PMA (Biotium, Fremont, CA, USA), was diluted 1 in 50 with PBS. The diluted PMA was then added to the dislodged biofilm samples in a 1:1 ratio in an Eppendorf tube, to give a final PMA concentration of 200 µM. The Eppendorfs were incubated at 37 °C for 10 min in the dark and then placed under a broad spectrum LED floodlight (ELRD, HL60 ^0 LEDx Max 0.1V) for 10 min. During this time, the Eppendorfs were inverted several times. Bacterial DNA was then extracted using the Qiagen blood and tissue kit (Germantown, MD, USA) according to the manufacturer’s instructions. Briefly, bacterial samples released from biofilms were centrifuged at 14000 RPM for 6 min, and the supernatant was removed. Bacterial pellets were resuspended in 200 µL of AL buffer, and 25 µL of proteinase K was added to each Eppendorf. The suspensions were then heated to 56 °C for 30 min with shaking. Following this, 200 µL of ethanol was added to each Eppendorf and mixed gently. The contents were placed in fresh spin columns in 2 mL collection tubes. The spin columns were centrifuged at 8000 RPM for 2 min. The flow-through and the collection tubes were discarded. The spin columns were placed in fresh collection tubes, and 500 µL of AW1 buffer was added to each column. […]

Compound	Percentage lysis of human erythrocytes (human erythrocytes)	Viability of gingival fibroblasts (MTT) vs untreated controls [1]	F. nucleatum biofilm formation (live cell numbers by PMA-qPCR) ([2]; peptoid 1 µM)	F. nucleatum biofilm formation (live cell numbers by PMA-qPCR) ([2]; peptoid 10 µM)
C[C@@H](c1ccccc1)N(CC(N)=O)C(=O)CN(C(=O)CN(CCCCCCN)C(=O)CN(C(=O)CN(C(=O)CN(CCCCCCN)C(=O)CN(C(=O)CN(C(=O)CNCCCCCCN)[C@@H](C)c1ccccc1)[C@@H](C)c1ccccc1)[C@@H](C)c1ccccc1)[C@@H](C)c1ccccc1)[C@@H](C)c1ccccc1 [Peptoid 9, (NahNspeNspe)3-NH2] (H-[Gly(N-(CH2)6NH2)][Nspe][Nspe][Gly(N-(CH2)6NH2)][Nspe][Nspe][Gly(N-(CH2)6NH2)][Nspe][Nspe]-NH2; N-terminus assumed)	less than 5%	not to alter gingival fibroblast viability	statistically significant reduction in biofilm formation	statistically significant reduction in biofilm formation
NCCCCCCNCC(=O)N(CC(=O)N(CC(=O)N(CCCCCCN)CC(=O)N(CC(=O)N(CC(=O)N(CCCCCCN)CC(=O)N(CC(=O)N(CC(N)=O)Cc1ccccc1)Cc1ccccc1)Cc1ccccc1)Cc1ccccc1)Cc1ccccc1)Cc1ccccc1 [Peptoid 7] (H-[Gly(N-(CH2)6NH2)][Nphe][Nphe][Gly(N-(CH2)6NH2)][Nphe][Nphe][Gly(N-(CH2)6NH2)][Nphe][Nphe]-NH2; N-terminus assumed)	less than 5%			
C[C@@H](c1ccccc1)N(CC(N)=O)C(=O)CN(C(=O)CN(CCN)C(=O)CN(C(=O)CN(C(=O)CN(CCN)C(=O)CN(C(=O)CN(C(=O)CNCCN)[C@@H](C)c1ccccc1)[C@@H](C)c1ccccc1)[C@@H](C)c1ccccc1)[C@@H](C)c1ccccc1)[C@@H](C)c1ccccc1 [Peptoid 5] (H-[Gly(N-2-aminoethyl)][Nspe][Nspe][Gly(N-2-aminoethyl)][Nspe][Nspe][Gly(N-2-aminoethyl)][Nspe][Nspe]-NH2; N-terminus assumed)	≥ 10%			
C[C@@H](c1ccccc1)N(CC(N)=O)C(=O)CN(C(=O)CN(CCCCN)C(=O)CN(C(=O)CN(C(=O)CN(CCCCN)C(=O)CN(C(=O)CN(C(=O)CNCCCCN)[C@@H](C)c1ccccc1)[C@@H](C)c1ccccc1)[C@@H](C)c1ccccc1)[C@@H](C)c1ccccc1)[C@@H](C)c1ccccc1 [Peptoid 3] (H-[Nlys][Nspe][Nspe][Nlys][Nspe][Nspe][Nlys][Nspe][Nspe]-NH2; N-terminus assumed)	≥ 10%			
NCCNCC(=O)N(CC(=O)N(CC(=O)N(CCN)CC(=O)N(CC(=O)N(CC(=O)N(CCN)CC(=O)N(CC(=O)N(CC(=O)N(CCN)CC(=O)N(CC(=O)N(CC(N)=O)Cc1ccccc1)Cc1ccccc1)Cc1ccccc1)Cc1ccccc1)Cc1ccccc1)Cc1ccccc1)Cc1ccccc1)Cc1ccccc1 [Peptoid 4, (NaeNpheNphe)4-NH2] (H-[Gly(N-2-aminoethyl)][Nphe][Nphe][Gly(N-2-aminoethyl)][Nphe][Nphe][Gly(N-2-aminoethyl)][Nphe][Nphe][Gly(N-2-aminoethyl)][Nphe][Nphe]-NH2; N-terminus assumed)	≥ 10%	not to alter gingival fibroblast viability	statistically significant reduction in biofilm formation	statistically significant reduction in biofilm formation
NCCCCCCNCC(=O)N(CC(=O)N(CC(=O)N(CCCCCCN)CC(=O)N(CC(=O)N(CC(=O)N(CCCCCCN)CC(=O)N(CC(=O)N(CC(=O)N(CCCCCCN)CC(=O)N(CC(=O)N(CC(N)=O)Cc1ccccc1)Cc1ccccc1)Cc1ccccc1)Cc1ccccc1)Cc1ccccc1)Cc1ccccc1)Cc1ccccc1)Cc1ccccc1 [Peptoid 6] (H-[Gly(N-(CH2)6NH2)][Nphe][Nphe][Gly(N-(CH2)6NH2)][Nphe][Nphe][Gly(N-(CH2)6NH2)][Nphe][Nphe][Gly(N-(CH2)6NH2)][Nphe][Nphe]-NH2; N-terminus assumed)	less than 5%			
NCCCCNCC(=O)N(CC(=O)N(CC(=O)N(CCCCN)CC(=O)N(CC(=O)N(CC(=O)N(CCCCN)CC(=O)N(CC(=O)N(CC(=O)N(CCCCN)CC(=O)N(CC(=O)N(CC(N)=O)Cc1ccccc1)Cc1ccccc1)Cc1ccccc1)Cc1ccccc1)Cc1ccccc1)Cc1ccccc1)Cc1ccccc1)Cc1ccccc1 [Peptoid 1] (H-[Nlys][Nphe][Nphe][Nlys][Nphe][Nphe][Nlys][Nphe][Nphe][Nlys][Nphe][Nphe]-NH2; N-terminus assumed)	≥ 10%			
